Test results as given in ChEMBL document CHEMBL1201862, “PubChem BioAssay data set” (2004).
Active and inactive are the calls of the source.

Experiments:
[1] = target: Beta-2 adrenergic receptor (Homo sapiens, UniProt P07550); test: ADRB2 activation measured by internalization – cell-based, FAP fluorogen, flow cytometry, cherry pick 1, dose response (AID 588763); assay type: functional
[2] = target: T1, Streptokinase A (Streptococcus pyogenes serotype M1, UniProt P10520); test: viability-normalized secreted streptokinase activity reduction – plasminogen activation absorbance, OD405, dose response (AID 1914); assay type: functional, Streptococcus pyogenes M1 GAS;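 also: secreted streptokinase activity via plasminogen activation per viability signal from cell pellet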
T1 sequence (P10520 whole entry): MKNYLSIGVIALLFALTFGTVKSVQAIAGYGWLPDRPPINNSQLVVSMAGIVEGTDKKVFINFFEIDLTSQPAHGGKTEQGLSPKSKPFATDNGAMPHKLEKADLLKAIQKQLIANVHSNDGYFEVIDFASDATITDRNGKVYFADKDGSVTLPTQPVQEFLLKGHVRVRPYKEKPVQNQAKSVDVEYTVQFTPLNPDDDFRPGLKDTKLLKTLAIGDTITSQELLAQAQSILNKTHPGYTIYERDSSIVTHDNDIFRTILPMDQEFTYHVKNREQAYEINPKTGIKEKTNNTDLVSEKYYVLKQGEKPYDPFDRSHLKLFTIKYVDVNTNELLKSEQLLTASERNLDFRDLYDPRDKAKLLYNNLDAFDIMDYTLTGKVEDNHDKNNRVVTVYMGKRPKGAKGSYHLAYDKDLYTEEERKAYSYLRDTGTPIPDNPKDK

[3] = target: T2, Replicative DNA helicase DnaB (Mycobacterium tuberculosis, UniProt P9WMR3); test: DnaB intein splicing inhibitors, dose response, biochemical, cell-free fluorescence (AID 449749); assay type: functional
T2 sequence (P9WMR3 whole entry): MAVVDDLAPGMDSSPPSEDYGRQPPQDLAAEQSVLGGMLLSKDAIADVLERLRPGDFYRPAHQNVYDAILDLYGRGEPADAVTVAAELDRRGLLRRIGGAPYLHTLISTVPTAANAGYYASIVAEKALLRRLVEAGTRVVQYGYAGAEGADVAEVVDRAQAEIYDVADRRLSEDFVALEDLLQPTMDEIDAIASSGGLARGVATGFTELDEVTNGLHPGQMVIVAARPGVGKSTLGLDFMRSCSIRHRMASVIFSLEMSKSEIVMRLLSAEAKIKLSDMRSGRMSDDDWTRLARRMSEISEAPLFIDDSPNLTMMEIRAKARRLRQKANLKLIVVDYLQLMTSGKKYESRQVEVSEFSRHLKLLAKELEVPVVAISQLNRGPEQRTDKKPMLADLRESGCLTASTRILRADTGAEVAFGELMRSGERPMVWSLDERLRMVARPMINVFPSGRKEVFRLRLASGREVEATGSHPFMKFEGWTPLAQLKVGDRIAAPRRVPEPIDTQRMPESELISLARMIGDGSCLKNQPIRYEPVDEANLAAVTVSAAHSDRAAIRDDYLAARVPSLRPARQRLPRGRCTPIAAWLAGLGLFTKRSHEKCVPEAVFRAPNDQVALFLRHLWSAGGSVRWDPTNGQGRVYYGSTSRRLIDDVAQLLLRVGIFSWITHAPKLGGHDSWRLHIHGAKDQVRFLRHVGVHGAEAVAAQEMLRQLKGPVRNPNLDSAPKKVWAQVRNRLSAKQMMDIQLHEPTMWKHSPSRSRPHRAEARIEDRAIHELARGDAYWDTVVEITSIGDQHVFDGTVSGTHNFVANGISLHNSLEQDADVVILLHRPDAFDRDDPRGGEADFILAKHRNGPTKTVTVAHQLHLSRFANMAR

[4] = target: Apoptotic protease-activating factor 1 (Homo sapiens, UniProt O14727); assay type: functional
[5] = target: T3, Protein RecA (Mycobacterium tuberculosis, UniProt P9WHJ3); test: Fluorescence Cell-Free Homogeneous Dose Retest to Identify Inhibitors of RecA-Intein Splicing Activity. [Related pubchem assays (depositor defined):AID2097, AID2223, AID489010, AID492950]; assay type: functional
T3 sequence (P9WHJ3 whole entry): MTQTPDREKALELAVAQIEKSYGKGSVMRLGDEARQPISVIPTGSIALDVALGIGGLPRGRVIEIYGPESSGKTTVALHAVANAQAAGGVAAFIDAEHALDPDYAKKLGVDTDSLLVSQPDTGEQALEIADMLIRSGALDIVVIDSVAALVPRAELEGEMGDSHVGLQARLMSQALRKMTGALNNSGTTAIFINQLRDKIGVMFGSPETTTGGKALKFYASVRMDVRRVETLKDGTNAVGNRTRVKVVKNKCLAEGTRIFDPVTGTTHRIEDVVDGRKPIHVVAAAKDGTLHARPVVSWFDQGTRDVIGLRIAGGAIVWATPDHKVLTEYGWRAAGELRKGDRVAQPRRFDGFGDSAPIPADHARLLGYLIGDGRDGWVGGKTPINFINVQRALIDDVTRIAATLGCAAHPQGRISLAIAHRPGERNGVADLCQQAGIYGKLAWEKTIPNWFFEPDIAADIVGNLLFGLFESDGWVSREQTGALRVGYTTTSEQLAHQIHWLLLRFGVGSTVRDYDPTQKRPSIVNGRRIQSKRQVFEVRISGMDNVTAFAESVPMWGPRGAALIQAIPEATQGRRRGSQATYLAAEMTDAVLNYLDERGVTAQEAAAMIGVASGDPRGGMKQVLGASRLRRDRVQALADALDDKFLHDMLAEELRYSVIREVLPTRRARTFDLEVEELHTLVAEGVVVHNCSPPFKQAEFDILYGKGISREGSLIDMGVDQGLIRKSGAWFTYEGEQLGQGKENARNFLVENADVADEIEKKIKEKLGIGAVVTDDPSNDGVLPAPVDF

[6] = test system: Streptococcus sp. 'group A'; test: Streptococcus pyogenes SK(-)GAS viability under kanamycin – luminescence, BacTiterGlo, confirmation, counter-screen for streptokinase expression inhibitor project, dose response (AID 1900); assay type: functional, organism-based
[7] = test system: Streptococcus; test: GAS UMAA2166 growth inhibition – luminescence, BacTiterGlo, counter-screen for streptokinase expression inhibitor project, dose response (AID 1915); assay type: functional, organism-based;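 also: potency for reduction of bacterial viability or growth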
[8] = target: T4, Mitochondrial peptide methionine sulfoxide reductase (Bos taurus, UniProt P54149); assay type: functional;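 also: absorbance read-out, biochemical high-throughput dose-response screen for MsrA inhibitors, confirmatory; recombinant bovine MsrA coupled to E. coli TrxB with NADPH and selenocystamine; potency is for inhibitors of MsrA activity on DMSO substrate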
T4 sequence (P54149 whole entry): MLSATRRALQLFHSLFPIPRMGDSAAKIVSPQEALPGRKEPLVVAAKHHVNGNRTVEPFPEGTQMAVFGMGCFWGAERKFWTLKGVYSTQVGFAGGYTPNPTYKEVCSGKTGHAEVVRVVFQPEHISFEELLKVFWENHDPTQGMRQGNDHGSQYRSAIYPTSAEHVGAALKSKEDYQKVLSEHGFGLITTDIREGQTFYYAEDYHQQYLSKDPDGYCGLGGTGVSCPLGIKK

[9] = test system: Vero; test: viability of Vero cells under compound – cytotoxicity control for flavivirus capping enzyme inhibitors (AID 588742); assay type: functional; details: Chlorocebus sabaeus
[10] = test system: HEK293; test: cells; details: Homo sapiens
[11] = test system: HEK293; test: cells; assay type: functional, cell-based; details: Homo sapiens
[12] = test system: HEK293; test: inhibition of NOD1-driven NF-kB reporter – cell-based, luminescence, uHTS, primary screen (AID 1578); assay type: functional; details: Homo sapiens
[13] = test system: HEK293; test: cells; assay type: functional, cell-based; details: Homo sapiens; remark: listed apart in the source
[14] = test system: HEK293; test: cells; details: Homo sapiens; remark: listed apart in the source
[15] = test system: HEK293; test: NOD2 signaling inhibitors in MDP-stimulated cells, cell-based, uHTS, luminescence (AID 2001); assay type: functional; details: Homo sapiens
[16] = target: T5, Microphthalmia-associated transcription factor (Homo sapiens, UniProt O75030); test: reducers of TRPM1 reporter luminescence, concentration series – cell-based, SK-MEL-5, cherry-picked, set 3, MITF inhibitor project, dose response (AID 493073); assay type: functional;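 also: SK-MEL-5 melanoma cells with luciferase driven by the MITF target TRPM1 promoter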
T5 sequence (O75030 whole entry): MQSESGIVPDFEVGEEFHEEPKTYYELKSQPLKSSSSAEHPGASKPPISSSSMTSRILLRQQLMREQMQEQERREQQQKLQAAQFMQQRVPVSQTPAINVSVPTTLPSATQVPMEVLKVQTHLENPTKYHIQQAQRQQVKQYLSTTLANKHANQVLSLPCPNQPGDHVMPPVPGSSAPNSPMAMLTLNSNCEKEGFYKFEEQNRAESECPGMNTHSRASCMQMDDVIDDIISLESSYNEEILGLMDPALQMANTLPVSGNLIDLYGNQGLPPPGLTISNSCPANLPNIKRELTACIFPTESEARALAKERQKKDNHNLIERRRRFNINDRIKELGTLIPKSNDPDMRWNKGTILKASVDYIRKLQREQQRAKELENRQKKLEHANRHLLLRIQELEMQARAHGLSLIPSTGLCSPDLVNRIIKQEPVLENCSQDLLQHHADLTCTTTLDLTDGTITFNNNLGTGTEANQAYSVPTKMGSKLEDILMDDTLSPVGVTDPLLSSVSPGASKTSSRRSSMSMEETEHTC

[17] = THP-1 cell cytotoxicity, dose response, cytotoxicity control for non-replicating M. tuberculosis project (AID 489025); assay type: functional
[18] = test system: HEK293; test: HEK293T cell viability loss, resazurin readout – resazurin fluorescence, cytotoxicity control for NF-kB activator project, SAR follow-up (AID 493251); assay type: functional, cell-based; details: Homo sapiens
[19] = cells; assay type: functional
[20] = test system: Jurkat; test: SAR Analysis of small molecule inhibitors of T-cell specific antigen receptor-induced NF-kB activation in a Jurkat cell line using a luminescence assay - Set 2. [Related pubchem assays (depositor defined):AID435003, AID435012, AID465]; assay type: functional, cell-based
[21] = Vero E6 cell cytotoxicity, dose response, cytotoxicity control for non-replicating M. tuberculosis project, secondary assay (AID 492998); assay type: functional, VeroE6; details: Vero C1008
[22] = test system: HEK293; test: SAR Analysis of small molecule inhibitors of T-cell specific antigen receptor-induced NF-kB activation in a HEK-293T cell line using a luminescence assay - Set 2. [Related pubchem assays (depositor defined):AID435003, AID435012, AID489026]; assay type: functional, cell-based
[23] = target: T6, Nuclear receptor subfamily 0 group B member 1 (Homo sapiens, UniProt P51843); test: Luminescence-based cell-based high throughput dose response assay for inhibitors of the orphan nuclear receptor subfamily 0, group B, member 1 (DAX1; NR0B1). [Related pubchem assays (depositor defined):AID504766, AID504790]; assay type: functional
T6 sequence (P51843 whole entry): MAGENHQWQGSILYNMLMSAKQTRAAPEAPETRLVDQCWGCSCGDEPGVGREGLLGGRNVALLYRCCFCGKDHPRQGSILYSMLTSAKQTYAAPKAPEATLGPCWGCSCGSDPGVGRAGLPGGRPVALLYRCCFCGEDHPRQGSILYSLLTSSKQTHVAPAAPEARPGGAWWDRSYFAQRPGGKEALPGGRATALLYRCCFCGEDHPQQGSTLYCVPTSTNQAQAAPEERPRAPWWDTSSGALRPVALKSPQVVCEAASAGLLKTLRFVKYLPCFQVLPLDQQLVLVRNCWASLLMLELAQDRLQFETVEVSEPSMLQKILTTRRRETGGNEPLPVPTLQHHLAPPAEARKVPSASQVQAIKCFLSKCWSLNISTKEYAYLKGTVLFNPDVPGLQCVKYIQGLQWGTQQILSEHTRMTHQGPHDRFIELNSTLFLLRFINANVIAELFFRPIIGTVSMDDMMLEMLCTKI

[24] = test system: HEK293; test: cells; assay type: functional, cell-based; details: Homo sapiens; remark: listed apart in the source
[25] = blockers of HIV-1 envelope-mediated cell-cell fusion – cherry-pick, dose response (AID 652057); assay type: functional, cell-based
[26] = blockers of HIV-1 ZM109 envelope-driven cell-cell fusion – HeLa effector, CEM target cells, luciferase, cherry-pick, dose response (AID 652058); assay type: functional, cell-based;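 also: luciferase signal from HIV-1 Env mediated cell-cell fusion of effector and target cells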
[27] = off-target signal loss in HeLa-CEM21 co-culture – HeLa F-luc CTL cells, cherry-picked, counter-screen for HIV-1 Env fusion inhibitor project, dose response (AID 652040); assay type: functional, cell-based;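 also: potency for signal decrease marking cytotoxic or nonspecific inhibition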
[28] = HIV-1 AD8 envelope cell-cell fusion blockers – cherry-pick, dose response (AID 652062); assay type: functional, cell-based;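 also: luciferase signal from cell-cell fusion driven by HIV-1 clade B AD8 Env; potency is for inhibitors of fusion seen as a drop in luminescence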
[29] = target: Dual specificity tyrosine-phosphorylation-regulated kinase 1A (Rattus norvegicus, UniProt Q63470); assay type: biochemical, Homo sapiens

Sequence of Beta-2 adrenergic receptor (P07550 whole entry): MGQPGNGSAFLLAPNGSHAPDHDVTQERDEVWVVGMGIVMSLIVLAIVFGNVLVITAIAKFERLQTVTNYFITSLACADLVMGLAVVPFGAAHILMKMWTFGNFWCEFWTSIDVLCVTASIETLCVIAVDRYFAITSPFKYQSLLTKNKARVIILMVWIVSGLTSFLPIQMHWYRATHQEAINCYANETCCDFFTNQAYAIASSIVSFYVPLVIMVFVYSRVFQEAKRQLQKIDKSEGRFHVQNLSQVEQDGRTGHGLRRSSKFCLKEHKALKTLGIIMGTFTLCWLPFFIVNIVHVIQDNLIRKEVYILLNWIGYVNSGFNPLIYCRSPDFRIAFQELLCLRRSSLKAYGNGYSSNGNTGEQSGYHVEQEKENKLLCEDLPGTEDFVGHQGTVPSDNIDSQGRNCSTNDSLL
Sequence of Apoptotic protease-activating factor 1 (O14727 whole entry): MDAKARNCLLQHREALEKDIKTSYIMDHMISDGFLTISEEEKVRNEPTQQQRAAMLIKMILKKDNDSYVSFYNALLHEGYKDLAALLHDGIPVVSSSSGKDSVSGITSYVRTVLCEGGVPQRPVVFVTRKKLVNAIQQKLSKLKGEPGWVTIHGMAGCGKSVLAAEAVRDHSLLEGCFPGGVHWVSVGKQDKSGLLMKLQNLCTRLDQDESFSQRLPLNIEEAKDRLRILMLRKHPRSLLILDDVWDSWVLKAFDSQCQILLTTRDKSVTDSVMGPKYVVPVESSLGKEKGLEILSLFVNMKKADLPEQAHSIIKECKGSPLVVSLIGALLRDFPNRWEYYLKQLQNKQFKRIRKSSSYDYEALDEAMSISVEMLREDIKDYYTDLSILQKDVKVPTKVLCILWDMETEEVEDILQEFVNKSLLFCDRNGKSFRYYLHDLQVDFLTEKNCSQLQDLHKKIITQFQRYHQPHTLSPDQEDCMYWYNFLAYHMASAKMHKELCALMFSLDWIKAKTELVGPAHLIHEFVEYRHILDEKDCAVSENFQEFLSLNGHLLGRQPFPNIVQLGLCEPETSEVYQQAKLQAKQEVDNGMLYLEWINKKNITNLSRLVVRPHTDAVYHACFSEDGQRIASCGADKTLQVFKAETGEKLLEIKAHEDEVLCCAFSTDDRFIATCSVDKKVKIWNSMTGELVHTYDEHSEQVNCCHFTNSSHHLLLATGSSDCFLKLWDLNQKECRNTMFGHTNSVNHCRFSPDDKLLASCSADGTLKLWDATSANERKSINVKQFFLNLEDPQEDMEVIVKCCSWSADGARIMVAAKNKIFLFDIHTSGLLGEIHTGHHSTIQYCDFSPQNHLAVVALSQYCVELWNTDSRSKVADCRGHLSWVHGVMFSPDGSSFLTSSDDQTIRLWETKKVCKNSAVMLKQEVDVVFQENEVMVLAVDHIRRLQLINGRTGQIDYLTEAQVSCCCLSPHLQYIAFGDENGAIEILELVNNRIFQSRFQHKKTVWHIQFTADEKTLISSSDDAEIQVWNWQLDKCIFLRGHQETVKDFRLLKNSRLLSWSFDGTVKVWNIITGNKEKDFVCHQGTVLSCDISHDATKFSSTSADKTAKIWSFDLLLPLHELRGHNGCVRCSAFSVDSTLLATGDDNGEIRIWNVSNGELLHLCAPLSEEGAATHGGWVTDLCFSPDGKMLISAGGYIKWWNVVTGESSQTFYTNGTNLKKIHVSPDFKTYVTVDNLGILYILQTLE

Cn1c(CNc2nc(-c3ccccc3)cs2)nnc1SCC(=O)N1CCc2ccccc21
EC50 [1]: 666 nM (active)

Cc1[nH]c2ccccc2c1C(C#N)(C#N)C1C(=O)c2ccccc2C1=O
EC50 [2]: > 150 µM (not active) | AC50 [3]: > 120 µM (inactive) | IC50 [4]: > 100 µM (inactive) | EC50 [5]: 297 nM (active) | EC50 [6]: 8.49 µM (active) | EC50 [7]: > 150 µM (not active) | IC50 [8]: 12.1 µM (inactive) | CC50 [9]: > 40 µM (active)

O=C(CCl)Nc1cc(S(=O)(=O)N2CCCCCC2)ccc1Cl
EC50 [10]: > 59.6 µM (inactive) | IC50 [11]: 7.86 µM (active) | EC50 [12]: 9.38 µM (active) | AC50 [3]: 9.12 µM (active) | IC50 [13]: > 20 µM (inactive) | EC50 [5]: 2030 nM (active) | EC50 [14]: > 59.6 µM (inactive) | IC50 [15]: > 20 µM (inactive)

Cc1cccc(NC(=O)c2ccc([N+](=O)[O-])o2)c1C
AC50 [16]: 14.8 µM (active) | CC50 [17]: 20.5 µM (active) | IC50 [18]: > 80 µM (inactive) | IC50 [19]: 10.8 µM (active) | IC50 ([20]; Homo sapiens, Jurkat): 17.8 µM (active) | IC50 ([20]; jurkat): 14.6 µM (active) | CC50 [21]: 8.76 µM (active) | IC50 ([22]; Homo sapiens, HEK293): 69.2 µM (inactive) | IC50 ([22]; hek293): 63.1 µM (inactive)

O=C(NC1=NCCS1)c1cccc(Br)c1
IC50 [23]: > 67.5 µM (inactive) | IC50 [24]: > 67.5 µM (inactive)

CCN1C(=O)[C@H]2[C@@H](c3ccc(C)cc3)N3C(=O)N(c4cccc(Cl)c4)C(=O)[C@@]3(CC)[C@H]2C1=O
EC50 [10]: > 59.6 µM (inactive) | AC50 [25]: 2.33 µM (active) | AC50 [26]: 2.06 µM (active) | EC50 [14]: > 59.6 µM (inactive) | AC50 [27]: 3.98 µM (active) | AC50 [28]: 4.82 µM (active)

C(=N\Nc1nc2ccccc2[nH]1)/c1ccc2c(c1)OCO2
IC50 [23]: > 67.5 µM (inactive) | IC50 [24]: > 67.5 µM (inactive)

c1cncc(-c2nc3ccccc3[nH]2)c1
AC50 [29]: > 120 µM (inactive)
